Measurements reported in ChEMBL document CHEMBL3297712, “Chasing protons: how isothermal titration calorimetry, mutagenesis, and pKa calculations trace the locus of charge in ligand binding to a tRNA-binding enzyme” (J Med Chem, 2014).

Columns and labels:
[1] = tested on: Zymomonas mobilis; test: Selectivity ratio of Kd for Zymomonas mobilis TGT D102N mutant to Kd for wild-type Zymomonas mobilis TGT
[2] = Binding affinity to wild-type Zymomonas mobilis TGT overexpressed in Escherichia coli BL21(DE3) by isothermal titration calorimetric analysis
[3] = Binding affinity to Zymomonas mobilis TGT D102N mutant overexpressed in Escherichia coli BL21(DE3) by isothermal titration calorimetric analysis
[4] = tested on: Zymomonas mobilis; test: Selectivity ratio of Kd for Zymomonas mobilis TGT D156N mutant to Kd for wild-type Zymomonas mobilis TGT
[5] = Binding affinity to Zymomonas mobilis TGT D156N mutant expressed in Escherichia coli Rosetta 2(DE3) by isothermal titration calorimetric analysis
[6] = Binding affinity to Zymomonas mobilis TGT E235Q mutant overexpressed in Escherichia coli BL21(DE3) by isothermal titration calorimetric analysis

| Selectivity ratio [1] | Selectivity ratio [4] | SMILES | Kd [2] [µM] | Kd [3] [µM] | Kd [5] [µM] | Kd [6] [µM] |
| --- | --- | --- | --- | --- | --- | --- |
| 3 | 4 | CNc1nc2cc3c(=O)[nH]c(N)nc3cc2[nH]1 | 0.0524 | 0.146 | 0.188 |  |
|  |  | Nc1nc2cc3[nH]c(NCCN4CCOCC4)nc3cc2c(=O)[nH]1 | 0.035 |  |  | 1.28 |
|  |  | Cc1nc2cc3nc(N)[nH]c(=O)c3cc2[nH]1 | 0.288 |  |  |  |
|  |  | CNc1nc2cc3c(=O)[nH]cnc3cc2[nH]1 | 0.411 |  |  |  |
